Experimental data reported in patent US7425572B2, “Use of dioxindoindazoles and dioxoloindazoles for treating glaucoma” (Alcon, Inc., priority 2004, dated 2008).
Where a name gives a salt, the structure may show the parent alone.

Legend:
[1] = molecular target: T1, 5-HT2 receptor (A7r5 rat vascular smooth muscle cells) (Rattus norvegicus, UniProt P14842); experiment: 5-HT2 functional assay: [Ca2+]i mobilization (FLIPR); format: cell-based; settings: for EC50: [Ca2+]i mobilization; for Emax: percentage of maximum 5-HT-induced response, read-out: Efficacy (Emax, %)
T1 construct: endogenous in cells; host or cells: A7r5 rat vascular smooth muscle cells
Protocol: Method 2: 5-HT2 Functional Assay: [Ca^2+]i Mobilization
The receptor-mediated mobilization on intracellular calcium ([Ca^2+]i) was studied using the Fluorescence Imaging Plate Reader (FLIPR) instrument. Rat vascular smooth muscle cells, A7r5, were grown in a normal media of DMEM/10% FBS and 10 μg/mL gentamycin. Confluent cell monolayers were trypsinized, pelleted, and re-suspended in normal media. Cells were seeded in a […] volume at a density of 20,000 cells/well in a black wall, 96-well tissue culture plate and grown for 2 days.
On the day of the experiment, one vial of FLIPR Calcium Assay Kit dye was re-suspended in 50 mL of a FLIPR buffer consisting of Hank's Balanced Salt Solution (HBSS), 20 mM HEPES, and 2.5 mM probenecid, pH 7.4. Cells were loaded with the calcium-sensitive dye by addition of an equal volume (50 μL) to each well of the 96-well plate and incubated with dye for 1 h at 23° C.
Typically, test compounds were stored at 25 μM in 50% DMSO/50% Ethanol solvent. Compounds were diluted 1:50 in 20% DMSO/20% Ethanol. For “hit” screening, compounds were further diluted 1:10 in FLIPR buffer and tested at a final concentration of 10 μM. For dose-response experiments, compounds were diluted 1:50 in FLIPR buffer and serially diluted 1:10 to give a 5- or 8-point dose-response curve.
The compound plate and cell plate were placed in the FLIPR instrument. At the beginning of an experimental run, a signal test was performed to check the basal fluorescence signal from the dye-loaded cells and the uniformity of the signal across the plate. The basal fluorescence was adjusted between 8000-12000 counts by modifying the exposure time, the camera F-stop, or the laser power. Instrument settings for a typical assay were the following: laser power 0.3-0.6 W, camera F-stop F/2, and exposure time 0.4 sec. An aliquot (25 μL) of the test compound was added to the existing 100 μL dye-loaded cells at a dispensing speed of 50 μL/sec. Fluorescence data were collected in real-time at 1.0 sec intervals for the first 60 secs and at 6.0 sec intervals for an additional 120 secs. Responses were measured as peak fluorescence intensity minus basal and where appropriate were expressed as a percentage of a maximum 5-HT-induced response. When the compounds were tested as antagonists against 10 μM 5-HT, they were incubated with the cells for 15 minutes prior to the addition of 5-HT.

[2] = system: lasered (hypertensive) eyes of conscious cynomolgus monkeys; experiment: Acute IOP response in lasered (hypertensive) eyes of conscious cynomolgus monkeys; format: in vivo; settings: lasered monkey eye
Protocol: Method 3: Acute IOP Response in Lasered (Hypertensive) Eyes of Conscious Cynomolgus Monkeys
Intraocular pressure (IOP) can be determined with an Alcon Pneumatonometer after light corneal anesthesia with 0.1% proparacaine. Eyes are washed with saline after each measurement. After a baseline IOP measurement, test compound is instilled in one 30 μL aliquot to the right eyes only of nine cynomolgus monkeys. Vehicle is instilled in the right eyes of six additional animals. Subsequent IOP measurements are taken at 1, 3, and 6 hours.
The above method was used to determine the IOP lowering efficacy of the compound of Example 1 (dosed at a concentration of 300 μg).

[3] = 1 hr after topical dose of 300 μg
[4] = 3 hrs after topical dose of 300 μg
[5] = 6 hrs after topical dose of 300 μg

T1 sequence (P14842 whole entry): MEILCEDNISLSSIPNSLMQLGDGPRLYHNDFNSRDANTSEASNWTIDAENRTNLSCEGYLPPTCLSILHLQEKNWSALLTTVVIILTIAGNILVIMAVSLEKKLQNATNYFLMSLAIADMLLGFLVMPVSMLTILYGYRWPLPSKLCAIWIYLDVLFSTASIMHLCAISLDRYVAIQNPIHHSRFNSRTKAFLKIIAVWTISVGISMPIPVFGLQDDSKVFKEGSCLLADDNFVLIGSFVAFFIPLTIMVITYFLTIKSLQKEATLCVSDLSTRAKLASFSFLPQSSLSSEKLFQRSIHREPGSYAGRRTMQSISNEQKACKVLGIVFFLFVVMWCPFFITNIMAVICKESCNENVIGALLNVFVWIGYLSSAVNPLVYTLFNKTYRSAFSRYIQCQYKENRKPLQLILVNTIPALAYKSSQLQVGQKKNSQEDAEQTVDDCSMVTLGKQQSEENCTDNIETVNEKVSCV

With `C[C@H](N)Cn1ncc2ccc3c(c21)O[C@@H](CO)CO3` (as salt: hydrochloride) [Example 1, [(S)-1-((S)-2-Amino-propyl)-7,8-dihydro-1H-[1,4]dioxino[2,3-g]indazol-8-yl]-methanol hydrochloride] the melting point was 202 to 203 °C.

For `C[C@H](N)Cn1ncc2ccc3c(c21)O[C@@H](CO)CO3` [Example 1, [(S)-1-((S)-2-Amino-propyl)-7,8-dihydro-1H-[1,4]dioxino[2,3-g]indazol-8-yl]-methanol hydrochloride], the EC50 [1] was 31 nM, the Emax [1] was 39% and the IOP % change [2, 3] was −4.3%. For the same compound, the “IOP Change mmHg” value [2, 3] was −2.2 mmHg, the IOP % change [2, 4] was −15.8% and the “IOP Change mmHg” value [2, 4] was −6.8 mmHg. For the same compound, the IOP % change [2, 5] was −23.6% and the “IOP Change mmHg” value [2, 5] was −9.6 mmHg.

With `C[C@H](N)Cn1ncc2ccc3c(c21)O[C@H](CO)CO3.Cl` [Example 2, [(R)-1-((S)-2-Aminopropyl)-7,8-dihydro-1H-[1,4]dioxino[2,3-g]indazol-8-yl]-methanol hydrochloride] the EC50 [1] was 53 nM, the Emax [1] was 77% and the melting point was 112 to 116 °C.

In the case of `C[C@H](N)Cn1ncc2ccc3c(c21)OCCO3` [Example 3, (S)-2-(7,8-Dihydro-[1,4]dioxino[2,3-g]indazol-1-yl)-1-methyl-ethylamine hydrochloride], the EC50 [1] is reported as 27 nM and the Emax [1] is reported as 92%.

`C[C@H](N)Cn1ncc2ccc3c(c21)O[C@@H](CNS(C)(=O)=O)CO3.Cl` [Example 4, N-[(S)-1-((S)-2-Amino-propyl)-7,8-dihydro-1H-[1,4]dioxino[2,3-g]indazol-8-ylmethyl]-methanesulfonamide hydrochloride] gave an EC50 [1] of 78 nM, an Emax [1] of 81% and a melting point of 235 to 236 °C.

In the case of `CCS(=O)(=O)NC[C@H]1COc2ccc3cnn(C[C@H](C)N)c3c2O1.Cl` [Example 5, Ethanesulfonic acid [(S)-1-((S)-2-amino-propyl)-7,8-dihydro-1H-[1,4]dioxino[2,3-g]indazol-8-ylmethyl]-amide hydrochloride], the EC50 [1] is reported as 67 nM, the Emax [1] is reported as 82% and the melting point is reported as 243 to 244 °C.

In the case of `CC(C)C(=O)NC[C@H]1COc2ccc3cnn(C[C@H](C)N)c3c2O1` [Example 6, N-[(S)-1-((S)-2-Amino-propyl)-7,8-dihydro-1H-[1,4]dioxino[2,3-g]indazol-8-ylmethyl]-isobutyramide hydrochloride], the EC50 [1] is reported as 125 nM and the Emax [1] is reported as 59%.

Work on `COC(=O)NC[C@H]1COc2ccc3cnn(C[C@H](C)N)c3c2O1.Cl` [Example 7, [(S)-1-((S)-2-Amino-propyl)-7,8-dihydro-1H-[1,4]dioxino[2,3-g]indazol-8-ylmethyl]-carbamic acid methyl ester hydrochloride] yielded an EC50 [1] of 92 nM, an Emax [1] of 66% and a melting point of 265 to 266 °C.

With `C[C@H](N)Cn1ncc2ccc3c(c21)O[C@@H](CN)CO3` [Example 8, (S)-2-((S)-8-Aminomethyl-7,8-dihydro-[1,4]dioxino[2,3-g]indazol-1-yl)-1-methyl-ethylamine hydrochloride] the EC50 [1] was 232 nM and the Emax [1] was 54%.

`COC(=O)NC[C@@H]1COc2ccc3cnn(C[C@H](C)N)c3c2O1` [Example 9, [(R)-1-((S)-2-Amino-propyl)-7,8-dihydro-1H-[1,4]dioxino[2,3-g]indazol-8-ylmethyl]-carbamic acid methyl ester hydrochloride] gave an EC50 [1] of 106 nM and an Emax [1] of 44%.
